According to article PMC9612005 (Pharmaceutics, 2022):
Several values for one entry are separate records, joined by “and”; a condition that tells them apart may be missing. Equal entries are not always repeated. Where two headings read alike, the source gives them in different places.

How the values were obtained:
[1] = molecular target: T1, rod CNG channels (CNGA1:CNGB1a) (Bos taurus, UniProt Q00194+Q28181); test: Patch-clamp on inside-out patches, heterotetrameric rod CNG channels expressed in Xenopus laevis oocytes; assay type: cell-based, bovine
T1 construct: expressed in transfected cells; host or cells: Xenopus laevis oocytes (cRNA injection, pGEMHE vector); inside-out patches
Excerpt: The patch pipettes were pulled from borosilicate glass tubing (outer diameter 2.0 mm, inner diameter 1.0 mm; Hilgenberg GmbH, Malsfeld, Germany). The initial resistance of the solution-filled pipettes was 0.6–1.4 MΩ. […] For studying the activation and deactivation kinetics of CNG channels, we performed fast jumps between different ligand concentrations by means of a double-barreled θ-glass pipette mounted on a piezo-driven device, which was controlled by the computer. For measuring the time courses, the recording rate was 20 kHz. […]

[2] = test system: rod photoreceptors; test: µERG a-wave of mouse retinal explants on MEA, scotopic (dark-adapted) stimulation; assay type: cell-based; settings: for photoreceptor (rod) responses under low scotopic light: <−2.0 log; for photoreceptor (rod) responses under low scotopic light / reduction of a-wave amplitudes / decrease in the a-wave slope vs control: inhibitor 50 µM, activator 0.1 µM; for reduction of a-wave amplitudes: higher light intensities (≥−2.0 log); for a-wave amplitude / a-wave slope: inh 50 µM, act 0.1 µM, mean ±std
Experimental: (§1) Further animal experiments were performed using adult postnatal-day (P) 25–30 C57BL/6J mice (n = 12). Animals were housed under standard 12 h white cyclic lighting, had free access to food, water, and playgrounds, and were used irrespective of gender. Animal protocols compliant with §4 of the German law on animal protection were reviewed and approved by the Tübingen University committee on animal protection, and registered on 30 March 2022 under the No. AK05/22M. Moreover, experiments were performed in accordance with the ARVO statement for the use of animals in ophthalmic and visual research. All efforts were made to minimize the number of mice used and their suffering.
(§2) The mice were kept overnight in a ventilated light-tight box for dark-adaption. Subsequent procedures were performed under dim red light. The eyes of the mice were enucleated; then, the retina was isolated in extracellular solution containing (in mM): 125 NaCl, 26 NaHCO3, 2.5 KCl, 2 CaCl2, 1 MgCl2, 1.25 NaH2PO4, and 20 glucose, and was maintained at pH 7.4 using carboxygen perfusion (95/5% O2/CO2). All chemicals were obtained from Merck KGaA (Darmstadt, Germany). For MEA recording, the retinas were placed in the MEA-recording chamber (GC-side down). During the recordings, the tissue was perfused with carboxygenated medium at 32 °C. The chamber perfusion rate was adjusted to 2 mL/min.
(§3) Electrophysiological recordings were performed to assess the light dependent retinal responses (photoreceptors µERG and RGCs spikes) by means of a multi-electrode array system (MEA, USB-MEA60-Up-BC-System-E from Multi Channel Systems, Reutlingen, Germany) equipped with MEA 200/30iR-ITO-pr. The recordings were performed at a 25,000 Hz sampling-rate collecting unfiltered raw data. The trigger-synchronized operation of the light stimulation (LEDD1B T-Cube, Thorlabs) and MEA recording were controlled by the recording protocol set within the MCRack software (v 4.6.2, Multi Channel Systems, Reutlingen, Germany) and the digital I/O box (MCS). The light stimulation (white light LED, 2350 mW, MCWHD3, Thorlabs, Newton, NJ, USA) was applied from beneath the transparent glass MEA, guided by optic fiber and optics. A spectrometer USB4000-UV-VIS-ES (Ocean Optics, Orlando, FL, USA) was employed to calibrate the intensity of the applied light-stimulation protocol. To discriminate the rod and cone photoreceptor responses, a light-stimulation protocol for ex vivo MEA recordings was established following the standard in-vivo ERG protocol. For scotopic recordings (rod responses), the animals were dark-adapted (12 h), while for the photopic recordings (cone responses), the retinal explants were light-adapted on the MEA (5 min at intensity of 4.20 × 10^13 photons/cm^2/s), subsequent to scotopic stimulation. The parameters of the light stimuli were set as: light flash 250 ms long (3 repetition per light intensity, 20 s interval). Scotopic: 10 stimuli in 0.5 log steps from −4.5 to 0.0 (1.33 × 10^9–4.20 × 10^13 photons/cm^2/s). Photopic (background light: 4.20 × 10^13 photons/cm^2/s): four stimuli in 0.5 log steps from +0.5 to +2.0 (1.33 × 10^14–4.20 × 10^15 photons/cm^2/s).
MEA-recorded raw data files were filtered employing a Butterworth 2nd order filter (MC-Rack, Multi-channel systems) to extract the µERG (field potentials: bandpass 0.01–100 Hz) and spikes (high pass 200 Hz). The filtered data were converted to *.hdf files by MC DataManager (v1.6.1.0, Multi Channel Systems, Reutlingen, Germany) for further data processing in MATLAB [39]. Shown traces data are the average of 30 MEA recording electrodes, per condition. n = 5 retinae were recorded per condition. Statistical significance was estimated by one-way ANOVA followed by the Dunnett´s test for multiple comparisons. […]

[3] = test system: retinal ganglion cells; test: Light-evoked retinal ganglion cell spike responses of mouse retinal explants on MEA; assay type: cell-based; settings: for Spike count (10 ms bin): inh 50 µM, act 0.1 µM, mean ±std; for drop of RGC spiking activity: ≥−2.0 log
Experimental: as §1, §2, §3
MEA-recorded raw data files were filtered employing a Butterworth 2nd order filter (MC-Rack, Multi-channel systems) to extract the µERG (field potentials: bandpass 0.01–100 Hz) and spikes (high pass 200 Hz). The filtered data were converted to *.hdf files by MC DataManager (v1.6.1.0, Multi Channel Systems, Reutlingen, Germany) for further data processing in MATLAB [39]. Shown traces data are the average of 30 MEA recording electrodes, per condition. n = 5 retinae were recorded per condition. Statistical significance was estimated by one-way ANOVA followed by the Dunnett´s test for multiple comparisons. Experimental data are given as mean ± SEM.

[4] = scotopic, light intensity 0.0 log
[5] = scotopic, light intensity -0.5 log
[6] = scotopic, light intensity -1.0 log
[7] = scotopic, light intensity -1.5 log
[8] = scotopic, light intensity -2.0 log
[9] = scotopic, light intensity -2.5 log
[10] = scotopic, light intensity -3.0 log
[11] = scotopic, light intensity -3.5 log
[12] = scotopic, light intensity -4.0 log
[13] = scotopic, light intensity -4.5 log
[14] = photopic, light intensity +0.5 log
[15] = photopic, light intensity +1.0 log
[16] = photopic, light intensity +1.5 log
[17] = photopic, light intensity +2.0 log
[18] = scotopic, inhibitor 50 µM, activator 0.1 µM

T1 sequence (Q00194 whole entry): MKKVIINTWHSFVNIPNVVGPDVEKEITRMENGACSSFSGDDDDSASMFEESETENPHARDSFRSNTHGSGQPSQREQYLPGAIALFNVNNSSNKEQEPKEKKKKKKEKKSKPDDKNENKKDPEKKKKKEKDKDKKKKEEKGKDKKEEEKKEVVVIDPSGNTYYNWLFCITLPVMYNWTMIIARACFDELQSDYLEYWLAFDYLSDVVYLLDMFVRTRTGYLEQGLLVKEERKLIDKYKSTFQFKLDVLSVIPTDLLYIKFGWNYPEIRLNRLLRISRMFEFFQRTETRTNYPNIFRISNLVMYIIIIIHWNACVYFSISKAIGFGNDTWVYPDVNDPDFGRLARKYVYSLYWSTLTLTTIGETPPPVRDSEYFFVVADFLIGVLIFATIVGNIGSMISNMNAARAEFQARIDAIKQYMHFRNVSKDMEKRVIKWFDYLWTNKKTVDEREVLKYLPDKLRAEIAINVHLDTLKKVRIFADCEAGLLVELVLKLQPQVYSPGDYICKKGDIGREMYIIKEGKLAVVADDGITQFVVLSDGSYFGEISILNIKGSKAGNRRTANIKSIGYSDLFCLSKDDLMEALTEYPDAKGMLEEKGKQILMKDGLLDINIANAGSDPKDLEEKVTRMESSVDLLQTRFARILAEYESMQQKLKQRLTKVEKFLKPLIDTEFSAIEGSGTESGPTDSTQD
T1 sequence (Q28181 whole entry): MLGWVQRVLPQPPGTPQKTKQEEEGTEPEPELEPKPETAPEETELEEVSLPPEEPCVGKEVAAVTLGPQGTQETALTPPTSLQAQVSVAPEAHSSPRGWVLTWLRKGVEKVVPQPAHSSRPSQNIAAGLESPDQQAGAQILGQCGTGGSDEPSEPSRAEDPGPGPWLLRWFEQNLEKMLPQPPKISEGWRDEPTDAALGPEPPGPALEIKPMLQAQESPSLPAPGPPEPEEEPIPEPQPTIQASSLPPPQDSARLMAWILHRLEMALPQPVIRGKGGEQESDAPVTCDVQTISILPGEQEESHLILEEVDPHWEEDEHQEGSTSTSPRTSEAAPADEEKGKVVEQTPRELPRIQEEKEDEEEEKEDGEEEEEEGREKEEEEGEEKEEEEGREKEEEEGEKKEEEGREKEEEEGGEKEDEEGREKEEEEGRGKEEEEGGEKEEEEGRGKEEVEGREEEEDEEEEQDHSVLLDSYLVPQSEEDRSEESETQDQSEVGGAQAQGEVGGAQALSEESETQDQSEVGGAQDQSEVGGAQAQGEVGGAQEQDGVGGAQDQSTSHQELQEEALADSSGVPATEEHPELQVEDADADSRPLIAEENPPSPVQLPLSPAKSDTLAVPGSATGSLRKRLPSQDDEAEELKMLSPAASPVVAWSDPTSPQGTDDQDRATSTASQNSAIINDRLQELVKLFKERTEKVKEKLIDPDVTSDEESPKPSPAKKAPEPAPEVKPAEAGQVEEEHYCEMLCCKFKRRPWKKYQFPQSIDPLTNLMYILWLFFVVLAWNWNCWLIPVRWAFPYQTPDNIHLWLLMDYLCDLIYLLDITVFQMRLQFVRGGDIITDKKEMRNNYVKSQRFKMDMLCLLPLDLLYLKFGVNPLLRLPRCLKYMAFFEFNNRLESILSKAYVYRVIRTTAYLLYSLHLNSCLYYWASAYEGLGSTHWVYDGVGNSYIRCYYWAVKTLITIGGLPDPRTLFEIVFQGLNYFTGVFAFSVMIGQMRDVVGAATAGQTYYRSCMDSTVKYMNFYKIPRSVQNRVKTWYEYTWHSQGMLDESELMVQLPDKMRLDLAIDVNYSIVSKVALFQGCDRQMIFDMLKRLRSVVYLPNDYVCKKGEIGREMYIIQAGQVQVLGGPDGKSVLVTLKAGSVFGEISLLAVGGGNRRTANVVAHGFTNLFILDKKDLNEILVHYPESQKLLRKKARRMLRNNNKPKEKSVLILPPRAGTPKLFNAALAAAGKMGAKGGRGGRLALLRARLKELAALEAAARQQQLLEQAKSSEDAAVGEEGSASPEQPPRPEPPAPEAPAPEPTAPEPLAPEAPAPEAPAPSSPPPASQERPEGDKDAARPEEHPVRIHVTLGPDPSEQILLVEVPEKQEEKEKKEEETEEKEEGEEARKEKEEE

In the case of `Nc1nc2c(nc(Sc3ccc(Cl)cc3)n2[C@@H]2O[C@@H]3COP(=O)(O)O[C@H]3[C@H]2O)c(=O)[nH]1` [8-pCPT-cGMP], the “effect on rod channels” value ([1]; 0.1 µM) is reported as “almost no effect on rod channels”, the “potency compared to cGMP, rod channel” value ([1]; higher potency than cGMP) is reported as ~ 63 times and the “H (Hill coefficient), rod CNG channels” value ([1]; ligand alone) is reported as 2.2. The EC50 ([1]; ligand alone, concentration-activation relationship, Hill fit, read-out: EC50, rod CNG channels) was 630 nM, the “photoreceptor (rod) responses under low scotopic light” value [2] was “rod-responses were essentially absent” and the “reduction of a-wave amplitudes” value ([2]; scotopic) was 60–80%. For the same compound, the a-wave amplitude [2, 4] was -27.81± 6.62 µV, the a-wave slope [2, 4] was -0.64± 0.21 µV / 20 ms and the a-wave amplitude [2, 5] was -24.30± 7.17 µV. The a-wave slope [2, 5] was -0.39± 0.16 µV / 20 ms, the a-wave amplitude [2, 6] was -18.28± 4.38 µV and the a-wave slope [2, 6] was -0.31± 0.09 µV / 20 ms. It also gave an a-wave amplitude [2, 7] of -14.14± 3.10 µV, an a-wave slope [2, 7] of -0.19± 0.17 µV / 20 ms and an a-wave amplitude [2, 8] of -11.59± 2.75 µV. The a-wave slope [2, 8] was -0.12± 0.22 µV / 20 ms, the a-wave amplitude [2, 9] was -3.02± 0.74 µV and the a-wave slope [2, 9] was -0.07± 0.01 µV / 20 ms. For the same compound, the a-wave amplitude [2, 10] was 0.04± 0.05 µV, the a-wave slope [2, 10] was 0.09± 0.15 µV / 20 ms and the a-wave amplitude [2, 11] was 0.00± 0.00 µV. It also gave an a-wave slope [2, 11] of -0.04± 0.08 µV / 20 ms, an a-wave amplitude [2, 12] of 0.00± 0.00 µV and an a-wave slope [2, 12] of 0.02± 0.01 µV / 20 ms. The a-wave amplitude [2, 13] was 0.00± 0.00 µV, the a-wave slope [2, 13] was 0.11± 0.10 µV / 20 ms and the “decrease in the a-wave slope vs control” value ([2]; scotopic) was ~ 85%. The “Spike count (10 ms bin)” value [3, 14] was 4.35± 0.79, the “Spike count (10 ms bin)” value [3, 15] was 4.43± 0.47 and the “Spike count (10 ms bin)” value [3, 16] was 4.74± 1.09. The “Spike count (10 ms bin)” value [3, 17] was 4.56± 0.92, the “Spike count (10 ms bin)” value [3, 4] was 3.92± 0.24 and the “Spike count (10 ms bin)” value [3, 5] was 3.60± 0.35. The “Spike count (10 ms bin)” value [3, 6] was 3.03± 0.52, the “Spike count (10 ms bin)” value [3, 7] was 3.04± 0.49 and the “Spike count (10 ms bin)” value [3, 8] was 2.41± 0.38. For the same compound, the “Spike count (10 ms bin)” value [3, 9] was 1.28± 0.51, the “Spike count (10 ms bin)” value [3, 10] was 0.73± 0.49 and the “Spike count (10 ms bin)” value [3, 11] was 0.86± 0.30. For the same compound, the “Spike count (10 ms bin)” value [3, 12] was 0.89± 0.07, the “Spike count (10 ms bin)” value [3, 13] was 0.67± 0.22 and the “drop of RGC spiking activity” value [3, 18] was 35–47%.
For `O=c1c2nc(Br)n([C@@H]3O[C@@H]4CO[P@@](=O)(S)O[C@H]4[C@H]3O)c2nc2[nH]c(-c3ccccc3)cn12` [Rp-8-Br-PET-cGMPS], the EC50 [1] was 450 nM, the “decrease in the apparent affinity of rod CNG channels (increase of cGMP EC50)” value ([1]; 50 µM analogue) was ~ 4.9 fold and ~ 5 fold and the “H (Hill coefficient), rod CNG channels” value ([1]; cGMP + 50 µM of the cGMP analogue) was 1.90. The “photoreceptor (rod) responses under low scotopic light” value [2] was “essentially abolished photoreceptor responses”, the “light intensity at which rod a-wave response was detectable” value ([2]; scotopic) was −2.0 log units and the “reduction of a-wave amplitudes” value ([2]; scotopic) was ~ 96%. The a-wave amplitude [2, 4] was -7.32± 1.37 µV, the a-wave slope [2, 4] was -0.15± 0.11 µV / 20 ms and the a-wave amplitude [2, 5] was -4.49± 1.49 µV. For the same compound, the a-wave slope [2, 5] was -0.07± 0.04 µV / 20 ms, the a-wave amplitude [2, 6] was -3.62± 1.17 µV and the a-wave slope [2, 6] was -0.07± 0.04 µV / 20 ms. It also gave an a-wave amplitude [2, 7] of -2.22± 1.40 µV, an a-wave slope [2, 7] of -0.03± 0.03 µV / 20 ms and an a-wave amplitude [2, 8] of -1.85± 0.71 µV. It also gave an a-wave slope [2, 8] of -0.04± 0.03 µV / 20 ms, an a-wave amplitude [2, 9] of 0.00± 0.00 µV and an a-wave slope [2, 9] of -0.05± 0.03 µV / 20 ms. For the same compound, the a-wave amplitude [2, 10] was 0.00± 0.00 µV, the a-wave slope [2, 10] was -0.04± 0.02 µV / 20 ms and the a-wave amplitude [2, 11] was 0.00± 0.00 µV. For the same compound, the a-wave slope [2, 11] was 0.02± 0.02 µV / 20 ms, the a-wave amplitude [2, 12] was 0.00± 0.00 µV and the a-wave slope [2, 12] was -0.02± 0.00 µV / 20 ms. For the same compound, the a-wave amplitude [2, 13] was 0.00± 0.00 µV, the a-wave slope [2, 13] was -0.02± 0.03 µV / 20 ms and the “decrease in the a-wave slope vs control” value ([2]; scotopic) was “up to 90%”. For the same compound, the “Spike count (10 ms bin)” value [3, 14] was 4.85± 0.92, the “Spike count (10 ms bin)” value [3, 15] was 4.40± 0.94 and the “Spike count (10 ms bin)” value [3, 16] was 4.51± 1.07. For the same compound, the “Spike count (10 ms bin)” value [3, 17] was 4.92± 1.12, the “Spike count (10 ms bin)” value [3, 4] was 3.80± 0.26 and the “Spike count (10 ms bin)” value [3, 5] was 3.48± 0.49. For the same compound, the “Spike count (10 ms bin)” value [3, 6] was 2.91± 0.16, the “Spike count (10 ms bin)” value [3, 7] was 2.80± 0.63 and the “Spike count (10 ms bin)” value [3, 8] was 2.55± 0.62. The “Spike count (10 ms bin)” value [3, 9] was 0.83± 0.28, the “Spike count (10 ms bin)” value [3, 10] was 0.72± 0.10 and the “Spike count (10 ms bin)” value [3, 11] was 1.14± 0.50. The “Spike count (10 ms bin)” value [3, 12] was 0.98± 0.44, the “Spike count (10 ms bin)” value [3, 13] was 1.03± 0.27 and the “drop of RGC spiking activity” value [3, 18] was 30–40%. The “RGC spiking activity under photopic stimulation” value ([3]; ≥+0.5 log, inhibitor 50 µM, activator 0.1 µM) was “remained nearly at control levels”.
